Assay results published in patent publication US20100179158A1, “INHIBITORS OF CYCLIC AMP PHOSPHODIESTERASES” (priority 2007, published 2010).
“Also recorded” adds a separate entry of the source.

What was measured:
PDE4A1 [1] = target: T1, PDE4A1 (Mus musculus, UniProt O89084); test: cAMP assay in yeast strain expressing PDE4A1; type: cell-based, murine
T1 construct: targets used in the assays are full-length proteins (as opposed to simply the catalytic domain); expressed in transfected cells; host or cells: Schizosaccharomyces pombe, gene integrated at the cgs2 locus
T1 sequence (O89084 1-610 isoform O89084-2): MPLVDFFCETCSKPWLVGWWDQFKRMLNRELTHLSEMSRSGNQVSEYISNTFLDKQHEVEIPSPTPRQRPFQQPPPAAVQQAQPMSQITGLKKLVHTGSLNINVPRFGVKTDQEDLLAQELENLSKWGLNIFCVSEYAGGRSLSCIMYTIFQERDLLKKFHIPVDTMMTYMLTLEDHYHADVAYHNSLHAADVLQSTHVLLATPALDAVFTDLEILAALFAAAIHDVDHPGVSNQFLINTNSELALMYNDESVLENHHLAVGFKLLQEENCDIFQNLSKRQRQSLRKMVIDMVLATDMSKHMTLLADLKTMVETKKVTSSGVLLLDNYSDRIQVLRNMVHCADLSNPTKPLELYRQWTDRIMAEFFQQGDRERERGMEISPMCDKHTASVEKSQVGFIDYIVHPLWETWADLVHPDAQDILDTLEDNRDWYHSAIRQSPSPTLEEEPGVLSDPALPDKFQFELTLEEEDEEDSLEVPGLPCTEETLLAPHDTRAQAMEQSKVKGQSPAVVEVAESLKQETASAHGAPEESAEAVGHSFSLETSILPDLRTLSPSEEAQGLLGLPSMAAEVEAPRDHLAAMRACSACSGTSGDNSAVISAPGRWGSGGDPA

PDE4A5 = target: T2, PDE4A5 (Rattus norvegicus, UniProt P54748); test: cAMP assay in yeast strain expressing PDE4A5; type: cell-based
T2 construct: targets used in the assays are full-length proteins (as opposed to simply the catalytic domain); expressed in transfected cells; host or cells: Schizosaccharomyces pombe, gene integrated at the cgs2 locus
T2 sequence (P54748 1-844): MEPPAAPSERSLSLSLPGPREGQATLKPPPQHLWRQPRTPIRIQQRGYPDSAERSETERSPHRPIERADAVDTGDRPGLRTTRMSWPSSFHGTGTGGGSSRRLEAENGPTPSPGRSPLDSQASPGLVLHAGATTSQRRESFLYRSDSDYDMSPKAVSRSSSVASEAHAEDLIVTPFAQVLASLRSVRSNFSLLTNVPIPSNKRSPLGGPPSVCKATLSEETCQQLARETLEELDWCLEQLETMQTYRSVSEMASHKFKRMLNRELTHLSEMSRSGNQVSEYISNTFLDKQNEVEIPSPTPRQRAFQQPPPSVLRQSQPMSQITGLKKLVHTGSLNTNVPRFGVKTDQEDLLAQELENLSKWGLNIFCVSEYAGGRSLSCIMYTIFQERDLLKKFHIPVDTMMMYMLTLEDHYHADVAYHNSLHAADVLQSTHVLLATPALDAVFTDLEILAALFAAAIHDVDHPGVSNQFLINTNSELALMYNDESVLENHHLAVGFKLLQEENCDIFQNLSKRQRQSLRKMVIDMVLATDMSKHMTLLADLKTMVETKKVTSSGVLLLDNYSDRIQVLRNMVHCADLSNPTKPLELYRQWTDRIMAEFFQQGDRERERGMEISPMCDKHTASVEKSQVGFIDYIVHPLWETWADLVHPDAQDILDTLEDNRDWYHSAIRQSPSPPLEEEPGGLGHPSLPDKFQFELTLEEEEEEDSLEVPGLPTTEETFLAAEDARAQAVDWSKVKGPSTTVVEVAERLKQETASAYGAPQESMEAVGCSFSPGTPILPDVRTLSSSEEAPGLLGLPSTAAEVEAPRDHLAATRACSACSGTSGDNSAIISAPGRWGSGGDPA

PDE4B3 = target: T3, PDE4B3 (Mus musculus, UniProt Q8VBU5); test: cAMP assay in yeast strain expressing PDE4B3; type: cell-based, murine
T3 construct: targets used in the assays are full-length proteins (as opposed to simply the catalytic domain); expressed in transfected cells; host or cells: Schizosaccharomyces pombe, gene integrated at the cgs2 locus
T3 sequence (Q8VBU5 1-721): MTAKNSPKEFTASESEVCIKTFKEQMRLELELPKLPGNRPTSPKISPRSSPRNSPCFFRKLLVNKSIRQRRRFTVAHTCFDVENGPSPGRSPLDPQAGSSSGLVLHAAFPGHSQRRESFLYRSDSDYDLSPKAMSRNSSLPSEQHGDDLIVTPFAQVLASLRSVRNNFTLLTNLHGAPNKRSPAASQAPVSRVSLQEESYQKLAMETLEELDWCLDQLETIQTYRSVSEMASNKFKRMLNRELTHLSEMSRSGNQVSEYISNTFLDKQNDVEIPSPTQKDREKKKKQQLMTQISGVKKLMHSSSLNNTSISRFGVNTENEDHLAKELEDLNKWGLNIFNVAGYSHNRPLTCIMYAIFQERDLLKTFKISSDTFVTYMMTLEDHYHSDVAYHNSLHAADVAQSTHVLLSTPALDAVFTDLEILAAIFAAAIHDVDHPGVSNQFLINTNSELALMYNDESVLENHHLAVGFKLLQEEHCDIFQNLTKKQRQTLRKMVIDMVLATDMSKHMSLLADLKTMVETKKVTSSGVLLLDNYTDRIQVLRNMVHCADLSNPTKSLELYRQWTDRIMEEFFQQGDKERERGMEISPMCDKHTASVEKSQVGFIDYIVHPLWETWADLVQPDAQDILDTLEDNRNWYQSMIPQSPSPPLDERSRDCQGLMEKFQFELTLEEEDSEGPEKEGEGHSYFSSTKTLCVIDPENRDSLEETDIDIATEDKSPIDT

PDE4D2 = target: T4, PDE4D2 (Homo sapiens, UniProt Q08499); test: cAMP assay in yeast strain expressing PDE4D2; type: cell-based
T4 construct: targets used in the assays are full-length proteins (as opposed to simply the catalytic domain); expressed in transfected cells; host or cells: Schizosaccharomyces pombe
T4 sequence (Q08499 303-809): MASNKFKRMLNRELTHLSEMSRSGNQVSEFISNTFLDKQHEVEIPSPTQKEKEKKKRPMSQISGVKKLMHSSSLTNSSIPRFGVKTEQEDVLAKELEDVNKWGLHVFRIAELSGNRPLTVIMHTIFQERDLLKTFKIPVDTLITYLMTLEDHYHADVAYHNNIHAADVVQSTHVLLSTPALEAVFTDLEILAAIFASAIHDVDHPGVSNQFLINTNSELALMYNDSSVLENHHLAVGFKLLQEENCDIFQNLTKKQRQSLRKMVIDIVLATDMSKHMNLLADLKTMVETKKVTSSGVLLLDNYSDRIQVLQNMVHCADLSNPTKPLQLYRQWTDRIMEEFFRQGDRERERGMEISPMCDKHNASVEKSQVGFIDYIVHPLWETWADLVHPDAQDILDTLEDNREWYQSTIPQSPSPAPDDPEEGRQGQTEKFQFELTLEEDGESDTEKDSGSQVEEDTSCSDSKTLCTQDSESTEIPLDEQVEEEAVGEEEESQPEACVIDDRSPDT

PDE4D3 [2] = target: T5, PDE4D3 (Homo sapiens, UniProt Q08499); test: cAMP assay in yeast strain expressing PDE4D3; type: cell-based
T5 construct: targets used in the assays are full-length proteins (as opposed to simply the catalytic domain); expressed in transfected cells; host or cells: Schizosaccharomyces pombe, gene integrated at the cgs2 locus
T5 sequence (Q08499 1-673 isoform Q08499-2): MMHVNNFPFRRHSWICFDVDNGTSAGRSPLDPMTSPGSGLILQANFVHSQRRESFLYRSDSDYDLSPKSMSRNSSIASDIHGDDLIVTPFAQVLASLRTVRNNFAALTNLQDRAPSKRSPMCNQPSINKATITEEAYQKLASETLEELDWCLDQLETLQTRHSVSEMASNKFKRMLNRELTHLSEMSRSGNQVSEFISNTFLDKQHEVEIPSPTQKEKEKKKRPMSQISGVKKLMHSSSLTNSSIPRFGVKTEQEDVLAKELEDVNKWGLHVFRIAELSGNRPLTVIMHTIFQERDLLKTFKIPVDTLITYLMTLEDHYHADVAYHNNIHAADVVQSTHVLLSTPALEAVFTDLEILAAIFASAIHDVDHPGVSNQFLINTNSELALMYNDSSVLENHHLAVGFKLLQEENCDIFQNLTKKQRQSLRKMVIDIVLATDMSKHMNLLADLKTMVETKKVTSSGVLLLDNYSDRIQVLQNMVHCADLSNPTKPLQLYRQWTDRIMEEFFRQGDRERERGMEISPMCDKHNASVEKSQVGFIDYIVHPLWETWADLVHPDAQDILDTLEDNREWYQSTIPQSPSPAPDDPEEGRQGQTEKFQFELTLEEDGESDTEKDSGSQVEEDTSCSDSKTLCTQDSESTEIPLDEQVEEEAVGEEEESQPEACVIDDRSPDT

PDE4A1 [3] = target: T1, PDE4A1; test: IC50 on PDE4A1; type: biochemical, murine; conditions: read-out: IC50, PDE 4A1
PDE4D3 [4] = target: T5, PDE4D3; test: IC50 on PDE4D3; type: biochemical; conditions: read-out: IC50, PDE 4D3
[5] = system: PDE4A, PDE4B, PDE4D, PDE7A; test: Overall PDE inhibitor profile from the yeast assays (table footnotes, summary); type: cell-based
Text: PDE inhibitors were identified using methods described herein, such as high throughput drug screens on genetically engineered fission yeast strains that express drug targets (e.g., PDE4A and/or PDE4B, which are anti-inflammatory targets). PDE inhibitors were identified based on their ability to stimulate growth and compounds were identified because they were effective in live cells. In addition, targets used in the assays are full-length proteins (as opposed to simply the catalytic domain) and the assay used included a built-in toxicity test, permeability test and stability test. The inhibitors identified display a very high degree of target specificity. Compounds identified include inhibitors that act on two of three PDE4 family enzymes and inhibitors that act on combinations of PDE4 and PDE7 strains. […] Limited inhibition of PDE4D by a PDE inhibitor is desirable, in view of the fact that inhibition of PDE4D causes emesis and cardiac arrhythmias. Subtype specificity was confirmed by means of cAMP assays.
Cells were pregrown in EMM medium [MP Biomedicals (Solon, OH), 3% glucose, filter-sterilized to avoid carmelization, which would introduce variability into the optical density of the medium] containing from 0 mM to 2.5 mM cAMP (or either 0.5 mM or 1.0 mM cGMP). This was to repress expression of the fbp1-ura4 reporter prior to exposure of cells to 5FOA medium. Cells were grown at 30° C. to exponential phase (approximately 10^7 cells/ml). Cells were collected by centrifugation and resuspended in 5FOA medium, and 25 μl were transferred to 384-well microtiter dishes (untreated, with flat clear bottoms) that had been pre-filled with 25 μl 5FOA medium and pre-pinned with 100 nl of compounds (stock solutions were generally 10 mM). Starting cell concentrations ranged from 0.5×10^5 to 4×10^5 cells/ml depending on the screening strain. […] Other positive control dishes contained 5 mM cAMP in the 5FOA medium for PDEs that lack appropriate control compounds. Cultures were grown for 48 hours at 30° C., sealed in an airtight container with moist paper towels to prevent evaporation. Optical densities (OD600) of cultures were measured using a microplate reader. Bioinformatic analysis of the results to determine composite Z scores was performed as previously described (1, 3).

Cc1cc(C)nc(SCCS(=O)(=O)c2ccc(C(C)(C)C)cc2)n1 [Compound 26]
cAMP Response (% rolipram), PDE 4A1 (PDE4A1 [1]): 96.00 % rolipram | cAMP Response (% rolipram), PDE 4A5 (PDE4A5): 57.30 % rolipram | cAMP Response (% rolipram), PDE 4B3 (PDE4B3): 92.00 % rolipram | cAMP Response (% rolipram), PDE 4D2 (PDE4D2): ND ND ND 17.00 ND % rolipram | cAMP Response (% rolipram), PDE 4D3 (PDE4D3 [2]): 14.00 % rolipram | IC50 (PDE4A1 [3]): 0.5 µM | IC50 (PDE4D3 [4]): 0.5 µM | PDE inhibitor profile in words (table footnote / summary) [5]: effective PDE4A/4B inhibitor that exhibits limited/essentially no inhibition of PDE4D; also recorded: effective PDE4A/4B inhibitor; also recorded: little or no inhibition of PDE4D; also recorded: (1) Strong PDE4A, 4B inhibitor
